{"source": "paper PMC7113684", "about": "(Antiviral Research, 2017)", "key": {"in vitro": {"assay": "in vitro", "settings": "human"}, "Huh-7 cells": {"tested_on": "Huh-7 cells", "settings": "human"}, "SARS-CoV 3CL^pro": {"target": "SARS-CoV 3CL^pro (Severe acute respiratory syndrome coronavirus, UniProt P0C6X7)", "settings": "cited from earlier work"}}, "note": "Structures can show the parent of a compound that is named as a salt."}
{"smiles": "Nc1ccn([C@@H]2O[C@H](CO)[C@@H](O)C2(F)F)c(=O)n1", "note": "[GEM, Gemcitabine hydrochloride]", "values": [{"measurement": "CC50", "setting": "in vitro", "value": "> 100", "unit": "µM"}, {"measurement": "decrease of viability of mock cells", "setting": "Huh-7 cells", "value": "≥ 20", "unit": "%"}]}
{"smiles": "CCOC(=O)/C=C/[C@H](C[C@@H]1CCNC1=O)NC(=O)[C@@H](CC(=O)[C@@H](NC(=O)c1cc(C)on1)C(C)C)Cc1ccc(F)cc1", "note": "[AG7088]", "values": [{"measurement": "activity against SARS-CoV 3CL^pro", "setting": "SARS-CoV 3CL^pro", "value": "inactive"}]}
